In patent US20250387443A1, “ENHANCING ONCOLYTIC V[…] A COMBINATION OF NUCLEAR EXPORT INHIBITOR AND MYXOMA VIRUS […] DEATH PATHWAYS” (Arizona Board of Regents on behalf of Arizona State …, priority 2024, published 2025):

Legend:
PANC-1 cells [1] = format: cell-based, human
Colo205 cells = format: cell-based, human
PANC-1 cells [2] = format: cell-based, human; remark: listed apart in the source
MDA-MB435 cells = format: cell-based, human
2D and 3D cell cultures = assay: MYXV replication in 2D and 3D cell cultures; format: cell-based
[3] = test system: human xenograft tumor models; assay: MYXV replication in human xenograft tumor models; format: in vivo; conditions: human xenograft tumor models in NSG mice

O=C(/C=C\n1cnc(-c2cc(C(F)(F)F)cc(C(F)(F)F)c2)n1)NNc1cnccn1 [selinexor]
significantly enhanced: replication of vMyx-M11L-KO (progeny virus) (PANC-1 cells [1]) | replication of vMyx-hLIGHT (progeny virus) (PANC-1 cells [1]) | MYXV gene expression and replication (Colo205 cells) | MYXV gene expression and replication (PANC-1 cells [2]) | MYXV gene expression and replication (MDA-MB435 cells) | MYXV replication (2D and 3D cell cultures) | MYXV replication [3]
